Laboratory results: the supplement of paper PMC10307832

What was measured:
Test in all cases: relative viability (nuclei count vs DMSO), 5 days (fraction); higher = more cells survive
Ibrutinib + OSI-027 = compound: C=CC(=O)N1CCC[C@@H](n2nc(-c3ccc(Oc4ccccc4)cc3)c3c(N)ncnc32)C1 [Ibrutinib] + COc1cccc2cc(-c3nc([C@H]4CC[C@H](C(=O)O)CC4)n4ncnc(N)c34)[nH]c12 [OSI-027] (partner 0.5 µM)
Summary of the method: (§1)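 Cells from lung cancer lines were seeded into 1536-well plates and, one day later, dosed by pin tool. Treatments were either a single drug or a fixed dose of an anchor drug with five library-drug doses (not always all listed) in √10 steps. After 5 days, nuclei were stained in a one-step fixation (final 0.05% Triton X-100, 1% formaldehyde, 1 ug/ml Hoechst) and counted on 4× images, and relative viability is the treated-to-vehicle nuclei ratio, as the median of duplicate plates.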

Ibrutinib + Crizotinib = compound: C=CC(=O)N1CCC[C@@H](n2nc(-c3ccc(Oc4ccccc4)cc3)c3c(N)ncnc32)C1 [Ibrutinib] + C[C@@H](Oc1cc(-c2cnn(C3CCNCC3)c2)cnc1N)c1c(Cl)ccc(F)c1Cl [Crizotinib] (partner 1 µM)
Summary of the method: as §1

Ibrutinib + Linsitinib = compound: C=CC(=O)N1CCC[C@@H](n2nc(-c3ccc(Oc4ccccc4)cc3)c3c(N)ncnc32)C1 [Ibrutinib] + C[C@]1(O)C[C@@H](c2nc(-c3ccc4ccc(-c5ccccc5)nc4c3)c3c(N)nccn32)C1 [Linsitinib] (partner 1 µM)
Summary of the method: as §1

Ibrutinib + Vorinostat = compound: C=CC(=O)N1CCC[C@@H](n2nc(-c3ccc(Oc4ccccc4)cc3)c3c(N)ncnc32)C1 [Ibrutinib] + O=C(CCCCCCC(=O)Nc1ccccc1)NO [Vorinostat] (partner 1 µM)
Summary of the method: as §1

Cell Line | relative viability (Ibrutinib + OSI-027; first compound 0.005 µM) | relative viability (Ibrutinib + OSI-027; first compound 0.01581 µM) | relative viability (Ibrutinib + OSI-027; first compound 0.05 µM) | relative viability (Ibrutinib + OSI-027; first compound 0.1581 µM) | relative viability (Ibrutinib + OSI-027; first compound 0.5 µM) | relative viability (Ibrutinib + Crizotinib; first compound 0.005 µM) | relative viability (Ibrutinib + Crizotinib; first compound 0.01581 µM) | relative viability (Ibrutinib + Crizotinib; first compound 0.05 µM) | relative viability (Ibrutinib + Crizotinib; first compound 0.1581 µM) | relative viability (Ibrutinib + Crizotinib; first compound 0.5 µM) | relative viability (Ibrutinib + Linsitinib; first compound 0.005 µM) | relative viability (Ibrutinib + Linsitinib; first compound 0.01581 µM) | relative viability (Ibrutinib + Linsitinib; first compound 0.05 µM) | relative viability (Ibrutinib + Linsitinib; first compound 0.1581 µM) | relative viability (Ibrutinib + Linsitinib; first compound 0.5 µM) | relative viability (Ibrutinib + Vorinostat; first compound 0.005 µM) | relative viability (Ibrutinib + Vorinostat; first compound 0.01581 µM) | relative viability (Ibrutinib + Vorinostat; first compound 0.05 µM) | relative viability (Ibrutinib + Vorinostat; first compound 0.1581 µM) | relative viability (Ibrutinib + Vorinostat; first compound 0.5 µM)
HCC-366 | 0.803 | 0.84 | 0.934 | 0.802 | 0.96 | 0.623 | 0.525 | 0.506 | 0.45 | 0.514 | 0.634 | 0.614 | 0.662 | 0.51 | 0.614 | 0.396 | 0.387 | 0.306 | 0.443 | 0.404
HCC-827 | 0.727 | 0.67 | 0.648 | 0.783 | 0.45 | 0.89 | 0.923 | 0.927 | 0.94 | 0.184 | 1.01 | 0.947 | 1.01 | 0.854 | 0.32 | 0.916 | 0.943 | 1.06 | 0.875 | 0.861
HOP-62 | 0.689 | 0.733 | 0.832 | 0.982 | 0.924 | 0.988 | 0.947 | 1 | 0.948 | – | 0.761 | 0.771 | 0.979 | 1.17 | 1.07 | 0.529 | 0.701 | 0.557 | 0.778 | 0.71
IA-LM | – | – | – | – | – | 0.75 | 0.8 | 1.11 | 1 | 0.947 | 0.397 | 0.658 | 0.453 | 0.512 | 0.56 | 1.04 | 0.864 | 0.918 | – | 0.822
LC-2-ad | 0.741 | 0.746 | 0.797 | 0.792 | 0.752 | – | 0.449 | 0.546 | 0.476 | 0.419 | 0.829 | 0.778 | 0.89 | 0.869 | 0.745 | 0.74 | 0.665 | 0.706 | 0.802 | 0.775
LCLC-97TM1 | 0.586 | 0.425 | 0.558 | 0.487 | 0.483 | 0.365 | 0.369 | – | 0.553 | 0.313 | 0.179 | – | 0.175 | 0.2 | 0.169 | 0.702 | 0.798 | 0.718 | 0.897 | 0.691
LCLC-103H | 0.459 | 0.409 | 0.485 | 0.393 | 0.485 | 1.06 | 1.03 | 1.02 | 1.06 | 1.04 | 1.28 | 1.16 | 1.09 | 1.1 | 1.03 | 0.776 | 0.878 | 0.777 | 0.782 | 0.754
LK-2 | 0.151 | 0.203 | 0.203 | 0.174 | 0.212 | – | 0.355 | 0.216 | 0.275 | 0.252 | 0.422 | 0.7 | 0.552 | 0.377 | 0.528 | 0.236 | 0.234 | 0.266 | 0.293 | 0.177
LOU-NH91 | 0.586 | 0.617 | 0.555 | 0.659 | 0.448 | 0.697 | 0.557 | 0.666 | 0.738 | 0.526 | 0.834 | 0.733 | 0.739 | 0.892 | 0.492 | 0.818 | 0.782 | 0.749 | 0.88 | 0.684
NCI-H522 | 0.656 | 0.693 | 0.692 | 0.597 | 0.648 | – | – | – | – | – | – | – | – | – | – | 0.848 | 0.764 | – | 0.808 | 0.815
NCI-H1299 | – | – | – | – | – | 1 | 0.897 | 0.957 | 0.977 | 0.965 | 0.497 | 0.993 | 0.961 | 0.966 | 1.03 | – | – | – | – | –
NCI-H1395 | 0.602 | 0.617 | 0.612 | 0.5 | 0.781 | – | – | – | – | – | 1.16 | 0.968 | 0.995 | 1.45 | 1.13 | 0.529 | 0.79 | 0.642 | 0.516 | 0.798
NCI-H1563 | 0.753 | 0.71 | 0.694 | 0.825 | 0.766 | 0.815 | 0.874 | 0.803 | 0.875 | 0.8 | 1.37 | 1.08 | 1.33 | 1.16 | 1.06 | – | – | – | – | –
NCI-H1623 | 0.42 | 0.403 | 0.32 | 0.42 | 0.313 | – | – | – | – | – | – | – | – | – | – | – | – | – | – | –
NCI-H1648 | 0.243 | 0.288 | 0.278 | 0.256 | 0.306 | – | – | – | – | – | – | – | – | – | – | 0.423 | 0.441 | 0.402 | 0.31 | 0.343
NCI-H1650 | 0.554 | 0.506 | 0.452 | 0.59 | 0.482 | 0.845 | 0.919 | 0.934 | 1.09 | 0.744 | – | – | – | – | – | 0.579 | 0.589 | 0.422 | 0.71 | 0.535
NCI-H1703 | – | – | – | – | – | – | – | 0.839 | 0.934 | 0.729 | 0.178 | 0.676 | 0.632 | 0.467 | 0.627 | – | – | – | – | –
NCI-H1792 | – | 0.712 | 0.677 | – | 0.808 | 0.979 | 0.989 | 1.13 | 0.654 | 0.961 | 0.553 | 0.44 | 0.506 | 0.608 | 0.53 | – | – | – | – | –
NCI-H1793 | – | 0.238 | 0.243 | 0.207 | 0.219 | – | – | – | – | – | – | 0.66 | 0.652 | 0.797 | 0.509 | 0.405 | 0.643 | 0.47 | 0.518 | 0.367
NCI-H2170 | 0.48 | 0.587 | 0.459 | 0.822 | 0.272 | 1.07 | 0.824 | 0.452 | 1.19 | 0.227 | – | – | – | – | – | 0.703 | 0.656 | 0.396 | 0.831 | 0.181
NCI-H2342 | 0.462 | 0.566 | 0.494 | 0.532 | 0.505 | – | – | – | – | – | – | – | – | – | – | 0.495 | 0.783 | 0.754 | 0.76 | 0.731
SW 900 | – | – | 0.532 | 0.442 | 0.62 | – | – | – | – | – | – | – | – | – | – | 0.343 | 0.43 | 0.488 | 0.4 | 0.527
